# Test results: patent US11648254B2 (Kumquat Biosciences Inc., priority 2021, dated 2023)
# pIC50: −log10 of the molar value. Like-named read-outs stand apart in the source and are kept apart here.
# Legend:
# SOS1 = SOS1 (Homo sapiens (Human), UniProt Q07889); assay: Ras-SOS interaction assay (HTRF); format: biochemical
# [1] = test system: MIA PaCa-2 cells (K-Ras G12C); assay: Ras-SOS cellular growth inhibition assay (CellTiter-Glo, 3D); format: cell-based; conditions: Homo sapiens
# Experimental: MIA PaCa-2 (ATCC CRL-1420) and NCI-H1792 (ATCC CRL-5895) cell lines comprise a G12C mutation can be used to assess Ras cellular signaling in vitro, e.g., in response to a subject compound of the present disclosure. […] Cell culture medium (comprising, for example, MIA PaCa-2 cells) is prepared with DMEM/Ham's F12 (e.g., with stable Glutamine, 10% FCS, and 2.5% Horse Serum. NCI-H1792 culture medium is prepared with RPMI 1640 (e.g., with stable Glutamine) and 10% FCS. A CellTiter-Glo (CTG) luminescent based assay (Promega) is used to assess growth of the cells, as a measurement of the ability of the compounds herein to inhibit Ras signaling in the cells. The cells (e.g., 800-1200 per well) are seeded in their respective culture medium in standard tissue culture-treated ultra-low attachment surface 96-well format plates (Corning Costar #3474). The day after plating, cells are treated with a dilution series (e.g., a 9 point 3-fold dilution series) of the compounds herein (e.g., approximately 125 μl final volume per well). Cell viability can be monitored (e.g., approximately 5 days later) according to the manufacturer's recommended instructions, where the CellTiter-Glo reagent is added (e.g., approximately 65 μl), vigorously mixed, covered, and placed on a plate shaker (e.g., approximately for 20 min) to ensure sufficient cell lysis prior to assessment of luminescent signal. The IC50 values are determined using the four-parameter fit. The resulting IC50 value is a measurement of the ability of the compounds herein to reduce cell growth of Ras-driven cells as representative tumor cells.
# [2] = test system: NCI-H1975 cells (EGFR T790M L858R); assay: EGFR-SOS cellular inhibition assay (CellTiter-Glo, 3D); format: cell-based; conditions: Homo sapiens
# [3] = K-RasG13D utilized, read-out: IC50 inhibition of SOS
# [4] = K-RasG13D, read-out: IC50 value against SOS1
# [5] = MIA PaCa-2, 120 h, MIA PaCa-2, 3D proliferation, about 5 days, read-out: Bio-Cell-Prolif-3D (MiaPaca2 IC50)
# [6] = MIA PaCa-2, MIA PaCa-2, read-out: IC50 in inhibiting MIA PaCa-2 cell growth
# [7] = 120 h, NCI-H1975, 3D proliferation, about 5 days, read-out: Bio-Cell-Prolif-3D (H1975 IC50)
# [8] = NCI-H1975, EGFR T790M L858R, read-out: IC50 in inhibiting growth of NCI-H1975 cell line
# SOS1, sequence (Q07889 564-1049): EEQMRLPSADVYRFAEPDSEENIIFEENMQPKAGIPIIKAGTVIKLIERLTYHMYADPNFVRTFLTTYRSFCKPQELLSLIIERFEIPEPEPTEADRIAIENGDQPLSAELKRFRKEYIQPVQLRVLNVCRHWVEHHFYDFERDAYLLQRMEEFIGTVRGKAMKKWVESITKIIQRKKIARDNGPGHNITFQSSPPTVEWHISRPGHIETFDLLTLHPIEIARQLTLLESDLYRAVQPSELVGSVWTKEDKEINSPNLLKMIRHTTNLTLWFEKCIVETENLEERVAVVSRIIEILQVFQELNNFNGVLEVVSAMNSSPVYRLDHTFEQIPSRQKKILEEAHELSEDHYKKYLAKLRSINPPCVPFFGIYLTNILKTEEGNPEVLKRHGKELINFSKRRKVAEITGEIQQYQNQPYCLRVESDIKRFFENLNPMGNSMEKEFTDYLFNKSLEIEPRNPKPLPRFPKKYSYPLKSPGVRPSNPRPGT
SMILES,pIC50 (SOS1; [3]),pIC50 (SOS1; [4]),"pIC50 [1, 5]","pIC50 [1, 6]","pIC50 [2, 7]","pIC50 [2, 8]"
"COc1nc2nc(C)nc(N[C@H](C)c3cccc(C(F)F)c3F)c2cc1C1=CCS(=O)(=O)CC1 [Compound 127, (R)-4-(4-((1-(3-(difluoromethyl)-2-fluorophenyl)ethyl)amino)-7-methoxy-2-methylpyrido[2,3-d]pyrimidin-6-yl)-3,6-dihydro-2H-thiopyran 1,1-dioxide]",> 7.00,> 7.30,≥ 6.00,> 6.30,≥ 6.00,> 6.30
"COc1nc2nc(C)nc(N[C@H](C)c3cccc(C(F)F)c3F)c2cc1C1(C#N)CCN(C)CC1 [Compound 128, (R)-4-(4-((1-(3-(difluoromethyl)-2-fluorophenyl)ethyl)amino)-7-methoxy-2-methylpyrido[2,3-d]pyrimidin-6-yl)-1-methylpiperidine-4-carbonitrile]",> 7.00,> 7.30,≥ 6.00,> 6.30,≥ 6.00,–
"CNCCN1CCC(c2cc3c(N[C@H](C)c4cccc(C(F)F)c4F)nc(C)nc3nc2OC)CC1 [Compound 129, (R)-N-(1-(3-(difluoromethyl)-2-fluorophenyl)ethyl)-7-methoxy-2-methyl-6-(1-(2-(methyl-12-azaneyl)ethyl)piperidin-4-yl)pyrido[2,3-d]pyrimidin-4-amine]",> 7.00,> 7.30,≥ 6.00,–,5.00 to 6.00,–
"COc1nc2nc(C)nc(N[C@H](C)c3cccc(C(F)F)c3F)c2cc1C1CCN(CCO)CC1 [Compound 130, (R)-2-(4-(4-((1-(3-(difluoromethyl)-2-fluorophenyl)ethyl)amino)-7-methoxy-2-methylpyrido[2,3-d]pyrimidin-6-yl)piperidin-1-yl)ethan-1-ol]",> 7.00,> 7.30,≥ 6.00,> 6.30,≥ 6.00,> 6.30
"Cc1nc(N[C@H](C)c2cccc(C(F)F)c2F)c2cc(S(=O)(=O)C3CCN(C)CC3)c(Cl)nc2n1 [Compound 132, (R)-7-chloro-N-(1-(3-(difluoromethyl)-2-fluorophenyl)ethyl)-2-methyl-6-((1-methylpiperidin-4-yl)sulfonyl)pyrido[2,3-d]pyrimidin-4-amine]",–,> 7.30,≥ 6.00,> 6.30,≥ 6.00,> 6.30
"COc1nc2nc(C)nc(N[C@H](C)c3cccc(C(F)F)c3F)c2cc1S(=O)(=O)C1CCN(C)CC1 [Compound 133, (R)-N-(1-(3-(difluoromethyl)-2-fluorophenyl)ethyl)-7-methoxy-2-methyl-6-((1-methylpiperidin-4-yl)sulfonyl)pyrido[2,3-d]pyrimidin-4-amine]",> 7.00,> 7.30,≥ 6.00,> 6.30,≥ 6.00,> 6.30
"COc1nc2nc(C)nc(N[C@H](C)c3cccc(C(F)F)c3F)c2cc1[C@@H]1CCCN(C)C1 [Compound 134, N-((R)-1-(3-(difluoromethyl)-2-fluorophenyl)ethyl)-7-methoxy-2-methyl-6-((S)-1-methylpiperidin-3-yl)pyrido[2,3-d]pyrimidin-4-amine]",> 7.00,> 7.30,≥ 6.00,> 6.30,≥ 6.00,> 6.30
"COc1nc2nc(C)nc(N[C@H](C)c3cccc(C(F)F)c3F)c2cc1[C@H]1CCCN(C)C1 [Compound 135, N-((R)-1-(3-(difluoromethyl)-2-fluorophenyl)ethyl)-7-methoxy-2-methyl-6-((R)-1-methylpiperidin-3-yl)pyrido[2,3-d] pyrimidin-4-amine]",> 7.00,> 7.30,≥ 6.00,–,≥ 6.00,–
